Experimental data taken from ChEMBL document CHEMBL1141906, “Novel cyclized Pifithrin-alpha p53 inactivators: synthesis and biological studies” (Bioorg Med Chem Lett, 2005).

test system: not listed separately; test: Half reaction time was determined; assay type: ADME; conditions: mouse

SMILES	half-life
Br.N=c1sc2c(n1CC(=O)c1ccc([N+](=O)[O-])cc1)CC1CCCCC1C2 (stereo unspecified)	5 h
Br.COc1ccc(C(=O)C(C#N)n2c3c(sc2=N)CCCC3)cc1 (stereo unspecified)	12 h

Continued, values first:

half-life	SMILES
4 h	Br.Cc1ccc(C(=O)Cn2c3c(sc2=N)CCCC3)cc1
6 h	Br.N=c1sc2c(n1CC(=O)c1ccc([N+](=O)[O-])cc1)CCCC2

species on record: Mus musculus; test: Effective concentration required to protect mouse embryo cortical neurons against a DNA-damaging agent; assay type: functional; conditions: not given

SMILES	EC50
Br.COc1ccc(C(=O)C(C#N)n2c3c(sc2=N)CCCC3)cc1 (stereo unspecified)	~30 nM
O=[N+]([O-])c1ccc(-c2cn3c4c(sc3n2)CCCC4)cc1	~30 nM
